Reference: patent US6316439A, “Galanthamine derivatives as acetylcholinesterase inhibitors” (priority 1993, dated 2001)
Counter-ions that a name gives are not always drawn. Like-named read-outs stand apart in the source and are kept apart here.

How the values were obtained:
mice = assay: Dark Avoidance Assay (SDDA), reversal of scopolamine induced memory deficit; type: in vivo; settings: s.c., retest after 24 hours
Method: This utility can also be ascertained by determining the ability of these compounds to restore cholinergically deficient memory in the Dark Avoidance Assay. In this assay mice are tested for their ability to remember an unpleasant stimulus for a period of 24 hours. A mouse is placed in a chamber that contains a dark compartment; a strong incandescent light drives it to the dark compartment, where an electric shock is administered through metal plates on the floor. The animal is removed from the testing apparatus and tested again, 24 hours later, for the ability to remember the electric shock.
If scopolamine, an anticholinergic that is known to cause memory impairment, is administered before an animal's initial exposure to the test chamber, the animal re-enters the dark compartment shortly after being placed in the test chamber 24 hours later. This effect of scopolamine is blocked by an active test compounds, resulting in a greater interval before re-entry into the dark compartment.
The test results are expressed as the percent of a group of animals in which the effect of scopolamine is blocked, as manifested by an increased interval between being placed in the test chamber and reentering the dark compartment. Results of Dark Avoidance Assay for some of the compounds of this invention are presented in Table II along with a result for a reference compounds.

acetylcholinesterase = acetylcholinesterase (Homo sapiens, UniProt P22303); assay: Acetylcholinesterase Inhibition Assay (photometric method of Ellman et al.); type: biochemical
Sequence of acetylcholinesterase (P22303 32-614): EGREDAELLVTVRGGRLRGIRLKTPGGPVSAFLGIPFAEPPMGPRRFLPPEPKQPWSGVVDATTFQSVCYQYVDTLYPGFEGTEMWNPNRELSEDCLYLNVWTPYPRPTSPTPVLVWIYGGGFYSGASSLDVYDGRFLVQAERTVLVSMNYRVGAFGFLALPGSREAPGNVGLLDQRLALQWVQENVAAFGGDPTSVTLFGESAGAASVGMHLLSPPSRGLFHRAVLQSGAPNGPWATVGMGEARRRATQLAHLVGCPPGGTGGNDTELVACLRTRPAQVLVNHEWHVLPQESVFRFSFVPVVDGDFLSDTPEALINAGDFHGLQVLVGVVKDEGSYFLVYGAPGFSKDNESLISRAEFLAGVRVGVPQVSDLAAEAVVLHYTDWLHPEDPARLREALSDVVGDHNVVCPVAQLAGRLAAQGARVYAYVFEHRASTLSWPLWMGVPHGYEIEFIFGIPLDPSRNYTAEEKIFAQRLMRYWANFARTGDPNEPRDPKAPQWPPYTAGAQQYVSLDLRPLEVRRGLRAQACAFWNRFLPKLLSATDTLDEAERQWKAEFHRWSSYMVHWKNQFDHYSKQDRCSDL

Structure (SMILES)	Percent of Animals with Scopolamine Induced Memory Deficit Reversal (mice; 0.10 mg/kg)	further results
CC(C)OC(=O)Oc1ccc2c3c1O[C@H]1C[C@@H](O)C=C[C@@]31CCN(C)C2 [Example 9, 6-O-Demethyl-6-O-(prop-2-yl-oxycarbonyl)galanthamine hydrochloride]	33% of Animals	–
CC(C)OC(=O)Oc1ccc2c3c1O[C@H]1C[C@@H](O)C=C[C@@]31CCN(C)C2 [6-O-Demethyl-6-O-(2-propoxycarbonyl)galanthamine]	–	IC50 (acetylcholinesterase): 1610 nM
CN1CC[C@@]23C=C[C@H](O)C[C@@H]2Oc2c(OC(=O)C(C)(C)C)ccc(c23)C1 [Example 3, 6-O-Demethyl-6-O-(t-butylcarbonyl)galanthamine hydrochloride]	–	IC50 (acetylcholinesterase; photometric method of Ellman et al., read-out: IC50 CHE I): 2690 nM
Nc1c2c(nc3ccccc13)CCCC2 [Tacrine, reference compound]	–	Percent of Animals with Scopolamine Induced Memory Deficit Reversal (mice; 0.31 mg/kg): 33% of Animals
CN1CC[C@@]23C=C[C@H](O)C[C@@H]2Oc2c(OC(=O)C(C)(C)C)ccc(c23)C1 [6-O-Demethyl-6-O-(trimethylacetyl)-galanthamine]	53% of Animals	–
CC(C)OC(=O)OC1C=CC23CCN(C)Cc4ccc(OC(=O)C(C)(C)C)c(c42)OC3C1.Cl.O (stereo not drawn) [6-O-Demethyl-3-O-(2-propoxy-carbonyl)-6-O-(t-butylcarbonyl)-galanthamine hydrochloride hydrate]	53% of Animals	–
